In brackets after ≈: the same amount, converted by molar mass.
Experiments:
[1] = Mouse pharmacokinetics; assay type: in vivo, male ICR mice; details: mice
Description: Pharmacokinetic studies were conducted with male ICR mice (8 weeks old; 30–35 g body wt.) purchased from Koatech Company (Pyeongtaek, Korea), as reported previously. Intravenous dosing solutions were prepared in EtOH/20% aqueous HPβCD (10/90 vol%) at 2 and 3 mg/mL for baicalein and compound 2, respectively. Oral dosing solutions were prepared in EtOH/tween 80/20% aqueous HPβCD (10/10/80 vol%) at 1 and 1.5 mg/mL for baicalein and compound 2, respectively. Plasma sample analysis was performed as described above in mouse plasma stability assay.

[2] = logD7.4 by shake-flask method; assay type: physicochemical; details: 0.1 M phosphate buffer (pH 7.4), duplicate
Description: The assay was conducted as reported previously. Briefly, 100 µM test solutions were prepared by diluting 10 mM stock solutions of the test compounds (baicalein and compounds 1–7) in 0.1 M potassium phosphate buffer (pH 7.4) saturated with 1-octanol. Standard solutions were prepared by diluting each test solution with the same volume of DMSO in HPLC vials. Partition solutions were prepared by mixing each test solution and 1-octanol saturated with 0.1 M potassium phosphate buffer (pH 7.4) at three different volume ratios, namely 1:0.02, 1:0.2 and 1:2, in HPLC vials. The partition solutions were then vortexed for 1 h at 1500 rpm at rt. The standard solutions and the aqueous phase (bottom layer) of each partition solution were analyzed directly from the HPLC vials as described above in Chemical stability assay. The logD7.4 values were calculated by the following equation: logD7.4=log(2×As/Ap−1)·Vt/Vo where As and Ap are, respectively, the peak areas of the standard and the aqueous phase of the partition solutions and Vt and Vo the volumes of test solution and 1-octanol of the partition solutions.

[3] = Kinetic solubility in phosphate buffer (pH 7.4); assay type: physicochemical; details: aqueous buffer, kinetic from dmso stock; shake-flask, 0.1 M phosphate buffer (pH 7.4), triplicate
Description: Stock solutions of the test compounds (baicalein and compounds 1–7) prepared at 10 mM in DMSO were diluted with 0.1 M potassium phosphate buffer (pH 7.4) in Mini-UniPrep filter vial (PTFE membrane, 0.45 μm) to a final concentration of 500 µM. The mixture was then shaken at 800 rpm for 90 min at rt and filtered by slowly pressing the upper tube of the Mini-Uniprep vial. The filtrate (300 µL) was then transferred to an HPLC vial containing same volume of acetonitrile. Sample analysis was conducted as described above in Chemical stability assay.

[4] = Chemical stability in physiologically-relevant solutions; assay type: physicochemical; details: 37 °C; for remaining at 4 h, 10 μM: at 4 h vs time 0
Description: Stock solutions of the test compounds (baicalein, compounds 1–7) prepared in MeOH at 10 mM were diluted in 0.1 N HCl and 0.1 M potassium phosphate buffer (pH 6.5 and 7.4) in triplicate to a final concentration of 10 μM. The mixtures were then incubated at 37 °C in a shaking water bath. Samples taken at 0, 1, 2, 3 and 4 h were analyzed by Thermo UltiMate 3000 series HPLC system. Chromatographic separation was performed on an Agilent Eclipse Plus C18 column (100 × 4.6 mm, 3.5 µm) kept at 40 °C with isocratic elution at a flow rate of 0.6 mL/min using a mixture of 0.1 vol% TFA in deionized water and acetonitrile as the mobile phase. The detection wavelengths were 277 and 270 nm for baicalein and compounds 1–7, respectively. Peak areas of the analytes on the UV chromatograms were used to calculate % remaining values at each time points.
The stability of baicalein and of the synthesized carbamate prodrugs (1–7) was determined in solutions mimicking gastric (0.1 N HCl, pH ~ 1), intestinal (pH 6.5 phosphate buffer), and physiological (pH 7.4 phosphate buffer) conditions. […]. […] […]. The degradation of the carbamate prodrugs was accompanied by the formation of baicalein under all conditions in this study (data not shown). Although the exact reason for this pH-dependent stability remains unknown, it is plausible that the side chains of amino acids somehow affect the hydrolysis of the carbamate bond of the prodrugs.

[5] = in vitro; details: PAMPA
Description: (§1) The assay was conducted as reported previously [15]. The samples were analyzed as described below in mouse plasma stability assay.

[6] = Metabolic stability in mouse liver S9 fractions; assay type: in vitro ADME; details: presence of the cofactor mixture (NADPH, UDPGA, PAPS, GSH), 37 °C, 60 min
Description: Working solutions of the test compounds (baicalein, 7-EC, and compounds 1–7) prepared in 50 vol% aqueous MeOH at 120 μM were added in triplicate to a 200 mM tris buffer (pH 7.4) containing mouse liver S9 fractions (1 mg protein/mL), alamethicin (25 μg/mL) and MgCl2 (2 mM). The final concentration of test compound was 3 μM. This mixture was pre-incubated at 37 °C in a shaking water bath for 5 min followed by addition of a cofactor mixture to following final concentrations: 1 mM NADPH, 0.5 mM UDPGA, 0.1 mM PAPS and 2.5 mM GSH. A 50 μL aliquot was taken at 0, 15, 30 and 60 min from each incubation mixture. These samples were then treated in the same way as described above in Mouse plasma stability assay. The supernatant was analyzed by Agilent 6530 Q−TOF LC−MS/MS system in a positive auto MS/MS scan mode. The liquid chromatography was conducted in the same condition as described above in mouse plasma stability assay. The analytical data were analyzed using Agilent MassHunter Quantitative Analysis Software (version B.05.00). MS chromatograms were extracted using calculated exact masses ([M+H]^+) for the analytes. Peak area ratios of the analytes vs. IS on the extracted MS chromatograms were used to calculate % remaining values at each time points.

[7] = PAMPA (parallel artificial membrane permeability assay)
Description: as §1

[8] = male, ICR, mouse, iv, plasma analyte after single i.v. dose of baicalein 10 mg/kg
[9] = male, ICR, mouse, iv, plasma analyte after single i.v. dose of compound 2 15 mg/kg
[10] = male, ICR, mouse, po, plasma analyte after single p.o. dose of baicalein 10 mg/kg
[11] = male, ICR, mouse, po, plasma analyte after single p.o. dose of compound 2 50 mg/kg
[12] = pH 6.5 buffer (0.1 M potassium phosphate)
[13] = pH 7.4 buffer (0.1 M potassium phosphate)
[14] = male, ICR, mouse, in vivo, iv, plasma analyte after single i.v. dose of compound 2 15 mg/kg
[15] = male, ICR, mouse, in vivo, po, plasma analyte after single p.o. dose of compound 2 50 mg/kg

SMILES | logD [2] | solubility kinetic at 90 min [3] [µM] | half-life at 10 μM ([4]; buffer, pH 1, 0.1 N HCl, 10 μM) [h] | remaining at 4 h, 10 μM ([4]; buffer, pH 1, 0.1 N HCl) [%] | half-life at 10 μM [4, 12] [h] | remaining at 4 h, 10 μM ([4]; pH 6.5 buffer) [%] | half-life at 10 μM [4, 13] [h] | remaining at 4 h, 10 μM ([4]; pH 7.4 buffer) [%] | other results
O=C(O)[C@H]1O[C@@H](Oc2cc3oc(-c4ccccc4)cc(=O)c3c(O)c2O)[C@H](O)[C@@H](O)[C@@H]1O [Baicalin] | – | – | – | – | – | – | – | – | time plasma analyte was above the quantitation limit ([1]; after single i.v. dose of 10 mg/kg baicalein): 24 h; time plasma analyte was above the quantitation limit ([1]; after single p.o. dose of 10 mg/kg baicalein, 24 h time course): 24 h; AUC(0-inf) [1, 8]: 2600 ± 510 ng·h/mL; AUC(0-t) [1, 8]: 2450 ± 490 ng·h/mL; Cmax [1, 8]: 4590 ± 870 ng/mL; Tmax [1, 8]: 0.1 h; half-life [1, 8]: 6.2 ± 2.8 h; AUC(0-inf) [1, 9]: 500 ± 170 ng·h/mL; AUC(0-t) [1, 9]: 200 ± 88 ng·h/mL; Cmax [1, 9]: 90 ± 10 ng/mL; Tmax [1, 9]: 0.1 h; half-life [1, 9]: 6.6 ± 1.6 h; AUC(0-inf) [1, 10]: 4890 ± 1400 ng·h/mL; AUC(0-t) [1, 10]: 4420 ± 1440 ng·h/mL; Cmax [1, 10]: 2260 ± 670 ng/mL; Tmax [1, 10]: 0.2 h; half-life [1, 10]: 6.3 ± 3 h; AUC(0-t) [1, 11]: 680 ± 210 ng·h/mL; Cmax [1, 11]: 130 ± 40 ng/mL; Tmax [1, 11]: 6 ± 2.8 h
CC(C)C[C@H](NC(=O)Oc1cc2oc(-c3ccccc3)cc(=O)c2c(O)c1O)C(=O)O [Compound 1, (S)-2-((((5,6-Dihydroxy-4-oxo-2-phenyl-4H-chromen-7-yl)oxy)carbonyl)amino)-4-methylpentanoic acid] | 0.39 | 443 ± 65.9 (≈ 189 µg/mL) | 1.4 ± 0.3 | 17.4 ± 2.1 | > 4 | 92.9 ± 5 | > 4 | 98 ± 3.6 | –
CC(C)NCC(O)COc1cccc2ccccc12 (centres unmarked) [propranolol] | – | – | – | – | – | – | – | – | Papp [5]: > 1 ×10⁻⁶ cm/s
C[C@@H](O)[C@H](NC(=O)Oc1cc2oc(-c3ccccc3)cc(=O)c2c(O)c1O)C(=O)O [Compound 4, (2S,3R)-2-((((5,6-Dihydroxy-4-oxo-2-phenyl-4H-chromen-7-yl)oxy)carbonyl)amino)-3-hydroxybutanoic acid] | -0.05 | 347 ± 11.4 (≈ 144 µg/mL) | > 4 | 109 ± 3.4 | 2.8 ± 0.1 | 37.3 ± 0.2 | 1.7 ± 0.1 | 20 ± 1 | –
O=C(N[C@@H](Cc1ccccc1)C(=O)O)Oc1cc2oc(-c3ccccc3)cc(=O)c2c(O)c1O [Compound 5, (S)-2-((((5,6-Dihydroxy-4-oxo-2-phenyl-4H-chromen-7-yl)oxy)carbonyl)amino)-3-phenylpropanoic acid] | 0.43 | 375 ± 21.4 (≈ 173 µg/mL) | 2.2 ± 0.4 | 27.4 ± 5.1 | > 4 | 78.5 ± 1.5 | > 4 | 70.2 ± 2.5 | metabolism in mouse liver S9 fractions [6]: metabolized much faster than the other prodrugs
COCCc1ccc(OCC(O)CNC(C)C)cc1 (centres unmarked) [metoprolol] | – | – | – | – | – | – | – | – | Papp [5]: > 1 ×10⁻⁶ cm/s
CC[C@@H](C)[C@H](NC(=O)Oc1cc2oc(-c3ccccc3)cc(=O)c2c(O)c1O)C(=O)O [Compound 3, (2S,3R)-2-((((5,6-Dihydroxy-4-oxo-2-phenyl-4H-chromen-7-yl)oxy)carbonyl)amino)-3-methylpentanoic acid] | 0.25 | 447 ± 36.9 (≈ 191 µg/mL) | > 4 | 98.9 ± 5 | > 4 | 90.2 ± 1.1 | > 4 | 80.1 ± 2.5 | –
NS(=O)(=O)c1cc2c(cc1Cl)NCNS2(=O)=O [hydrochlorothiazide] | – | – | – | – | – | – | – | – | Papp [5]: < 0.1 ×10⁻⁶ cm/s
O=C(N[C@H](CO)[C@H](O)c1ccc([N+](=O)[O-])cc1)C(Cl)Cl [chloramphenicol] | – | – | – | – | – | – | – | – | Papp [5]: > 1 ×10⁻⁶ cm/s
CC(C)[C@H](NC(=O)Oc1cc2oc(-c3ccccc3)cc(=O)c2c(O)c1O)C(=O)O [Compound 2, (S)-2-((((5,6-Dihydroxy-4-oxo-2-phenyl-4H-chromen-7-yl)oxy)carbonyl)amino)-3-methylbutanoic acid] | 0.04 | 479.2 ± 4.4 (≈ 198 µg/mL) | > 4 | 105 ± 3.5 | > 4 | 92.8 ± 4.2 | > 4 | 74.4 ± 6.6 | Papp [7]: 0.04 ± 0.02 ×10⁻⁶ cm/s; AUC(0-inf) [1, 14]: 88700 ± 43200 ng·h/mL; AUC(0-t) [1, 14]: 88600 ± 43200 ng·h/mL; Cmax [1, 14]: 65100 ± 4290 ng/mL; Tmax [1, 14]: 0.1 h; half-life [1, 14]: 1.9 ± 0.6 h; clearance ([1]; male, ICR, mouse, in vivo, iv, single i.v. dose of compound 2 15 mg/kg): 3.33 mL/min/kg; Vd ([1]; male, ICR, mouse, in vivo, iv, single i.v. dose of compound 2 15 mg/kg, read-out: VSS): 0.4 ± 0.1 L/kg; AUC(0-inf) [1, 15]: 5820 ± 1710 ng·h/mL; AUC(0-t) [1, 15]: 5430 ± 1730 ng·h/mL; Cmax [1, 15]: 2930 ± 590 ng/mL; Tmax [1, 15]: 0.3 ± 0.09 h; half-life [1, 15]: 1.7 ± 0.5 h; bioavailability ([1]; male, ICR, mouse, in vivo, oral bioavailability of compound 2, p.o. 50 mg/kg vs i.v. 15 mg/kg): 2 ± 0.6%
C[C@H](NC(=O)Oc1cc2oc(-c3ccccc3)cc(=O)c2c(O)c1O)C(=O)O [Compound 6, (S)-2-((((5,6-Dihydroxy-4-oxo-2-phenyl-4H-chromen-7-yl)oxy)carbonyl)amino)propanoic acid] | -0.18 | 400 ± 14.7 (≈ 154 µg/mL) | > 4 | 90.2 ± 4.1 | > 4 | 81.8 ± 1.3 | > 4 | 76.6 ± 1.7 | Papp [7]: < 0.01 ×10⁻⁶ cm/s
CCOc1ccc2ccc(=O)oc2c1 [7-Ethoxycoumarin] | – | – | – | – | – | – | – | – | metabolism in mouse liver S9 fractions [6]: rapid metabolism
O=C(O)CNC(=O)Oc1cc2oc(-c3ccccc3)cc(=O)c2c(O)c1O [Compound 7, 2-((((5,6-Dihydroxy-4-oxo-2-phenyl-4H-chromen-7-yl)oxy)carbonyl)amino)acetic acid] | -0.39 | 357.1 ± 1.4 (≈ 133 µg/mL) | 1.5 ± 0.3 | 23.3 ± 3.6 | > 4 | 82.2 ± 1 | > 4 | 76.7 ± 0.3 | –
CC(C)(C)NCC(O)COc1cccc2c1CC(O)C(O)C2 (centres unmarked) [nadolol, reference compound] | – | – | – | – | – | – | – | – | Papp [7]: < 0.1 ×10⁻⁶ cm/s
